Measured values taken from ChEMBL document CHEMBL5532651, “HDAC specificity and kinase off-targeting by purine-benzohydroxamate anti-hematological tumor agents” (Eur J Med Chem, 2024).
Calls of active or inactive are those of the source. The calls are words filed in the database; no cut-off is given here.

Experiments:
[1] = target: Phosphatidylinositol 4,5-bisphosphate 3-kinase catalytic subunit beta isoform (Homo sapiens) (UniProt P42338); assay: Inhibition of PI3Kb (unknown origin) at 100 uM preincubated for 20 mins followed by 33P-ATP addition measured after 2 hrs by HotSpot kinase assay relative to control; settings: time 140.0 min
[2] = target: Cyclin-dependent kinase 6 (Homo sapiens) (UniProt Q00534); assay: Inhibition of CDK6 (unknown origin) at 100 uM preincubated for 20 mins followed by 33P-ATP addition measured after 2 hrs by HotSpot kinase assay relative to control; settings: time 140.0 min
[3] = target: Cyclin-dependent kinase 4 (Homo sapiens) (UniProt P11802); assay: Inhibition of CDK4 (unknown origin) at 100 uM preincubated for 20 mins followed by 33P-ATP addition measured after 2 hrs by HotSpot kinase assay relative to control; settings: time 140.0 min
[4] = target: Phosphatidylinositol 4,5-bisphosphate 3-kinase catalytic subunit gamma isoform (Homo sapiens) (UniProt P48736); assay: Inhibition of PI3Kg (unknown origin) at 100 uM preincubated for 20 mins followed by 33P-ATP addition measured after 2 hrs by HotSpot kinase assay relative to control; settings: time 140.0 min
[5] = target: Phosphatidylinositol 4,5-bisphosphate 3-kinase catalytic subunit delta isoform (Homo sapiens) (UniProt O00329); assay: Inhibition of PI3Kd (unknown origin) at 100 uM preincubated for 20 mins followed by 33P-ATP addition measured after 2 hrs by HotSpot kinase assay relative to control; settings: time 140.0 min
U-937 [6] = assay: Cytotoxicity against human U-937 cells assessed as cell growth inhibition at 1.6 to 3.6 uM by MTT assay; type: functional, cell-based; settings: dose 1.6-3.6 µM, time lower 24.0 hrs, time upper […], TDE = time-dependent effect
Jurkat [7] = assay: Cytotoxicity against human Jurkat cells assessed as cell growth inhibition at 0.02 to 1.3 uM by MTT assay; type: functional, cell-based; settings: dose 0.02-1.3 µM, time lower 24.0 hrs, time upper […], TDE = time-dependent effect
NAMALVA [8] = assay: Cytotoxicity against human NAMALVA cells assessed as cell growth inhibition at 0.1 to 10.5 uM by MTT assay; type: functional, cell-based; settings: dose 0.1-10.5 µM, time lower 24.0 hrs, time upper […], TDE = time-dependent effect
[9] = target: Tyrosine-protein kinase JAK3 (Homo sapiens, UniProt P52333); assay: Inhibition of recombinant human JAK3 (781 to 1124 residues) in presence of ATP by ELISA
[10] = target: Tyrosine-protein kinase SYK (Homo sapiens) (UniProt P43405); assay: Inhibition of SYK (unknown origin) at 100 uM preincubated for 20 mins followed by 33P-ATP addition measured after 2 hrs by HotSpot kinase assay relative to control; settings: time 140.0 min
[11] = target: Tyrosine-protein kinase JAK1 (Homo sapiens) (UniProt P23458); assay: Inhibition of JAK1 (unknown origin) at 100 uM preincubated for 20 mins followed by 33P-ATP addition measured after 2 hrs by HotSpot kinase assay relative to control; settings: time 140.0 min
[12] = target: Tyrosine-protein kinase BTK (Homo sapiens) (UniProt Q06187); assay: Inhibition of BTK (unknown origin) at 100 uM preincubated for 20 mins followed by 33P-ATP addition measured after 2 hrs by HotSpot kinase assay relative to control; settings: time 140.0 min
[13] = target: Tyrosine-protein kinase JAK2 (Homo sapiens, UniProt O60674); assay: Inhibition of JAK2 (unknown origin) at 100 uM preincubated for 20 mins followed by 33P-ATP addition measured after 2 hrs by HotSpot kinase assay relative to control; settings: time 140.0 min
NAMALVA [14] = assay: Cytotoxicity against human NAMALVA cells assessed as cell growth inhibition at 0.1 to 9.9 uM by MTT assay; type: functional, cell-based; settings: dose 0.1-9.9 µM, time lower 24.0 hrs, time upper […], TDE = time-dependent effect
Jurkat [15] = assay: Induction of apoptosis in human Jurkat cells at IC50 measured after 48 hrs by flow cytometry; type: functional, cell-based
Jurkat [16] = assay: Cytotoxicity against human Jurkat cells assessed as cell growth inhibition at 0.05 to 1.2 uM by MTT assay; type: functional, cell-based; settings: dose 0.05-1.2 µM, time lower 24.0 hrs, time upper […], TDE = time-dependent effect
U-937 [17] = assay: Cytotoxicity against human U-937 cells assessed as cell growth inhibition at 0.7 to 2.5 uM by MTT assay; type: functional, cell-based; settings: dose 0.7-2.5 µM, time lower 24.0 hrs, time upper […], TDE = time-dependent effect

Sequence of Tyrosine-protein kinase JAK2 (O60674 whole entry): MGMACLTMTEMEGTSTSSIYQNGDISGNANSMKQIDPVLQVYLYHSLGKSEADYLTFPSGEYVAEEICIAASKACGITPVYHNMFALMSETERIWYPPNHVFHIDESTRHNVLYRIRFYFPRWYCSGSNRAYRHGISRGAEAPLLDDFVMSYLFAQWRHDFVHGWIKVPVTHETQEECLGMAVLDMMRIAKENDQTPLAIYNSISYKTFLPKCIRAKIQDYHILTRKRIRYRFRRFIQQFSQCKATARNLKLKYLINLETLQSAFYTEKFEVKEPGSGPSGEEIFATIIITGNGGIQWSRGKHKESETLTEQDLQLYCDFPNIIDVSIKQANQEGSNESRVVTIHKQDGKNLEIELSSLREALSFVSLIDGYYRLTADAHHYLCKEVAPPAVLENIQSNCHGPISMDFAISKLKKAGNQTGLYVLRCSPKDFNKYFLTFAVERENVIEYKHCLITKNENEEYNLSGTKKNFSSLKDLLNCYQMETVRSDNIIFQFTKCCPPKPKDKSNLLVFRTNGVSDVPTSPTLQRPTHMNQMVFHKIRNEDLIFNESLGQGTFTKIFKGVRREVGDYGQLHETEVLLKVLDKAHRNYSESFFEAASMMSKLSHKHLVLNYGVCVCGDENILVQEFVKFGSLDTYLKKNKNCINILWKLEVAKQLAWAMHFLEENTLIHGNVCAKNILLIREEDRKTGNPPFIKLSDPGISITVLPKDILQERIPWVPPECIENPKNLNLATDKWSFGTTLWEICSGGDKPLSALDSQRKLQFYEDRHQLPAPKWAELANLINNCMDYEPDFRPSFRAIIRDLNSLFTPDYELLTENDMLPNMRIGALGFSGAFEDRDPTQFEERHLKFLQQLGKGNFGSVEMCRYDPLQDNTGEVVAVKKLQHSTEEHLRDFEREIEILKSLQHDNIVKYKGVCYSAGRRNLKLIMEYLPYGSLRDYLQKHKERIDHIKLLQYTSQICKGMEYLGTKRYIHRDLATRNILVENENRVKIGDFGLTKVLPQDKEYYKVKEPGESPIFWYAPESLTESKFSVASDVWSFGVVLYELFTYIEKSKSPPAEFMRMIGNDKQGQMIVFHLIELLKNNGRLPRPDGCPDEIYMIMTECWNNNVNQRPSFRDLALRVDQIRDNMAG
Sequence of Phosphatidylinositol 4,5-bisphosphate 3-kinase catalytic subunit beta isoform (Homo sapiens) (P42338 whole entry, looked up, canonical isoform): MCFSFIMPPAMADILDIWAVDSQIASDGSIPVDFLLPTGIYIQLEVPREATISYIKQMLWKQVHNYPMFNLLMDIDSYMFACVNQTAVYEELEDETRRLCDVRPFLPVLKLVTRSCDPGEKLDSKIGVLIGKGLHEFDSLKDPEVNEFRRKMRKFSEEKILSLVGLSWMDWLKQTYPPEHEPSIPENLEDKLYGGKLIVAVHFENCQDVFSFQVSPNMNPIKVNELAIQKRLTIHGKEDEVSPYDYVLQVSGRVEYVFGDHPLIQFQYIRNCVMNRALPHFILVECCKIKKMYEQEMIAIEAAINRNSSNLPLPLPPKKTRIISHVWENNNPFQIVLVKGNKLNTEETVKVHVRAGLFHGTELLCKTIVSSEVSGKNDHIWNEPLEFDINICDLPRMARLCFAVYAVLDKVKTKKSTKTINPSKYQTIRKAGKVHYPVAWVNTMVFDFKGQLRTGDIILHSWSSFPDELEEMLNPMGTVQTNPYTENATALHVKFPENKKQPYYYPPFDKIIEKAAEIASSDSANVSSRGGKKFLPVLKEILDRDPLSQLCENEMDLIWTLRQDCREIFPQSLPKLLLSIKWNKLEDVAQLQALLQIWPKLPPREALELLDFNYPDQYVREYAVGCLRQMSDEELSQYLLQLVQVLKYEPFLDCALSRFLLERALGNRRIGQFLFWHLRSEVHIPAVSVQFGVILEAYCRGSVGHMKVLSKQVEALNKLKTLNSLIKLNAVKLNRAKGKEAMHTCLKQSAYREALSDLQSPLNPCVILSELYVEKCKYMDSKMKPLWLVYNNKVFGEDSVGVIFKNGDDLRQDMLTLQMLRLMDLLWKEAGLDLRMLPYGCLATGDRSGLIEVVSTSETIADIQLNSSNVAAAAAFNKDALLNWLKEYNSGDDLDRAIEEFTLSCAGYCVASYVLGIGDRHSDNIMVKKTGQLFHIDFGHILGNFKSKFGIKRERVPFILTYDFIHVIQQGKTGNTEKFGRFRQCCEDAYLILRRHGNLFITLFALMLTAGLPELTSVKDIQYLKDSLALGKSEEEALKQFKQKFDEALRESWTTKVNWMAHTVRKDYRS
Sequence of Tyrosine-protein kinase BTK (Homo sapiens) (Q06187 whole entry): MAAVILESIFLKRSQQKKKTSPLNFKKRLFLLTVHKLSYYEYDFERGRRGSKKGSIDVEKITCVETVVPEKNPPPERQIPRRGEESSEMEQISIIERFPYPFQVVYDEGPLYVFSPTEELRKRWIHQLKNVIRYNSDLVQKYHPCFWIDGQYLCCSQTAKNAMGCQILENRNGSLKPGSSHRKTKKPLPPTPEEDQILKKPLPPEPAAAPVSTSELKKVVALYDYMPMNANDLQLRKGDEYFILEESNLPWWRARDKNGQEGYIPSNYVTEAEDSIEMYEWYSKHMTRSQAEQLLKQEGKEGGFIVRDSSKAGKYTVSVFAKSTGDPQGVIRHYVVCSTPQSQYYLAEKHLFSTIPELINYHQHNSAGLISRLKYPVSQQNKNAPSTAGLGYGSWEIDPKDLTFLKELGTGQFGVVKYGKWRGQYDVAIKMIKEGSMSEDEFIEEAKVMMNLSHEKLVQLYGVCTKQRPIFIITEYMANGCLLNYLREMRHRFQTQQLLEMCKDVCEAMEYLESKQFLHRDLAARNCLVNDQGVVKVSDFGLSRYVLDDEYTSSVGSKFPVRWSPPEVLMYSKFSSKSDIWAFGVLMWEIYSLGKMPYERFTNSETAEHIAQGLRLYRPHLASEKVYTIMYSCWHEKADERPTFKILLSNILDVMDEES
Sequence of Cyclin-dependent kinase 4 (Homo sapiens) (P11802 whole entry, canonical isoform): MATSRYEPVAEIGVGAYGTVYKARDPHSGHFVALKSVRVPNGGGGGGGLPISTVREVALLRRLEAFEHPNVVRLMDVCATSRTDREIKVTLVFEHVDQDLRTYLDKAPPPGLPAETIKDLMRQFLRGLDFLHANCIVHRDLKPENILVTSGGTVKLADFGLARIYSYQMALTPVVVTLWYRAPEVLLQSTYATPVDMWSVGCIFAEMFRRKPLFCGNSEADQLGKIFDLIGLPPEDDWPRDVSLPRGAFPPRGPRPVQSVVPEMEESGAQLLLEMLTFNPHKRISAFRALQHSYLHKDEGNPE
Sequence of Tyrosine-protein kinase JAK1 (Homo sapiens) (P23458 whole entry): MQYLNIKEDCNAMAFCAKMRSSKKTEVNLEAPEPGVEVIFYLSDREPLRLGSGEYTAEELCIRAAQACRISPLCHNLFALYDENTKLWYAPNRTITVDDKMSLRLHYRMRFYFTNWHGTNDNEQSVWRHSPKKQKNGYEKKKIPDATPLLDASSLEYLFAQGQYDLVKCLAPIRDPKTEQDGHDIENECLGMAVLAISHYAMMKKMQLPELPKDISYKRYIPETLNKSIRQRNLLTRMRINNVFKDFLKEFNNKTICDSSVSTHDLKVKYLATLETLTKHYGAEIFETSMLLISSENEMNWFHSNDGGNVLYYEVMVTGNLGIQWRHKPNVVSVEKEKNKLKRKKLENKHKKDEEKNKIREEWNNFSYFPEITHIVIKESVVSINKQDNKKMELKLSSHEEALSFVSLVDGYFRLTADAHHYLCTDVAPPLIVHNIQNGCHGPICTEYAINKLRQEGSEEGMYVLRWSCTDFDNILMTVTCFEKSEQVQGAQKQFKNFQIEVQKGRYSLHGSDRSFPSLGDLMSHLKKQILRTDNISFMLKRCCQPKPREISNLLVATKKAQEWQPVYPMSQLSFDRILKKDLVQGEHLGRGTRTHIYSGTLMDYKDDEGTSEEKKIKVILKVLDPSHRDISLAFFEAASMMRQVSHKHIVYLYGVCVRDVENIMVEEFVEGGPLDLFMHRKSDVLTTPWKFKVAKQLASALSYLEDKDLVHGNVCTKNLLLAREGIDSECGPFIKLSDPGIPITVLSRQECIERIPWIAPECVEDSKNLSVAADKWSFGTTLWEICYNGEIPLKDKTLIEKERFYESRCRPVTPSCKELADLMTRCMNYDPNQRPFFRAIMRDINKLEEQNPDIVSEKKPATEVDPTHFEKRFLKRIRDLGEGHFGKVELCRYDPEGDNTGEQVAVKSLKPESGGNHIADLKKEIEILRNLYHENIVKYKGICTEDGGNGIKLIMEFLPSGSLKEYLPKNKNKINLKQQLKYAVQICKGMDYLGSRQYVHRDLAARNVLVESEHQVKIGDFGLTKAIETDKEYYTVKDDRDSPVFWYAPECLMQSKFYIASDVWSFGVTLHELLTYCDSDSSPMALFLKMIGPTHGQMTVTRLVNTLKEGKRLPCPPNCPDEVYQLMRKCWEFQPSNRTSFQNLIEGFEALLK
Sequence of Cyclin-dependent kinase 6 (Homo sapiens) (Q00534 whole entry): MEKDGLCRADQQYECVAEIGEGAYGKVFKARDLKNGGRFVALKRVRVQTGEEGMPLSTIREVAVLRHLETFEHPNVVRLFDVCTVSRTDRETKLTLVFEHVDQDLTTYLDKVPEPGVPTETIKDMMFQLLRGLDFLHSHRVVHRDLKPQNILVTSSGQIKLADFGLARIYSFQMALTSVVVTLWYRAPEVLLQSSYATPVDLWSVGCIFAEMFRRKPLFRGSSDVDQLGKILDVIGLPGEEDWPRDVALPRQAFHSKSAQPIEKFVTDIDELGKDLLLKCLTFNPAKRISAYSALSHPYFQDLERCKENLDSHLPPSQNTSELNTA

| inhibition [1] | inhibition [2] | inhibition [3] | inhibition [4] | inhibition [5] | IC50 [9] | inhibition [10] | inhibition [11] | inhibition [12] | inhibition [13] | SMILES | inhibition (U-937 [6]) | inhibition (Jurkat [7]) | inhibition (NAMALVA [8]) | inhibition (NAMALVA [14]) | Activity (Jurkat [15]) | inhibition (Jurkat [16]) | inhibition (U-937 [17]) |
| --- | --- | --- | --- | --- | --- | --- | --- | --- | --- | --- | --- | --- | --- | --- | --- | --- | --- |
| 62% | 38.6% | 73.2% | 44.2% | 51.2% | 2590 nM | 71.2% | 63.2% | 99.2% | 99.5% | O=C(NO)c1ccc(Cn2cnc3c(Nc4ccc(F)c(Cl)c4)ncnc32)cc1 | Tde | Tde | Tde |  |  |  |  |
|  |  |  |  |  |  |  |  |  |  | COc1ccc(Nc2ncnc3c2ncn3Cc2ccc(C(=O)NO)cc2)cc1 |  |  |  | Tde | Active | Tde | Tde |
